Experimental data: the supplement of paper PMC10883282

Key:
Assay in all cases: relative viability vs DMSO control (72 h) (fraction); higher = more viable cells
A204 = tested on: A204
Procedure, shortened: (§1)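 A 5 µM positive control and 0.1% DMSO vehicle ran alongside sarcoma cell lines seeded in 384-well plates to reach 80–90% confluence. Serially diluted compound, 2.5 µl from source plates of 10 mM to 0.0002 mM, was added after 24 h, and the plates were held 72 h at 37 °C, 5% CO2. Relative viability was worked out from ATPLite readings as percent growth averaged over up to triplicate wells. The values were rescaled so that 1 is full and 0 is none.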

G401 = tested on: G401
Procedure, shortened: as §1

HS729 = tested on: HS729
Procedure, shortened: as §1

KHOS-NP = tested on: KHOS-NP
Procedure, shortened: as §1

MES-SA = tested on: MES-SA
Procedure, shortened: as §1

RD = tested on: RD
Procedure, shortened: as §1

SK-ES-1 = tested on: SK-ES-1
Procedure, shortened: as §1

SK-LMS-1 = tested on: SK-LMS-1
Procedure, shortened: as §1

SW684 = tested on: SW684
Procedure, shortened: as §1

SW872 = tested on: SW872
Procedure, shortened: as §1

SYO-1 = tested on: SYO-1
Procedure, shortened: as §1

VA-ES-BJ = tested on: VA-ES-BJ
Procedure, shortened: as §1

COC(=O)c1ccc2c(c1)NC(=O)/C2=C(\Nc1ccc(N(C)C(=O)CN2CCN(C)CC2)cc1)c1ccccc1 [Nintedanib]
Settings | relative viability
A204, 0.00017 µM | 1.04
A204, 0.00051 µM | 1.04
A204, 0.00152 µM | 1.02
A204, 0.00457 µM | 0.997
A204, 0.01372 µM | 0.831
A204, 0.04115 µM | 0.566
A204, 0.1235 µM | 0.434
A204, 0.3704 µM | 0.392
A204, 1.111 µM | 0.376
A204, 3.333 µM | 0.318
A204, 10 µM | 0.22
G401, 0.00017 µM | 1
G401, 0.00051 µM | 0.99
G401, 0.00152 µM | 0.992
G401, 0.00457 µM | 1.03
G401, 0.01372 µM | 0.98
G401, 0.04115 µM | 0.987
G401, 0.1235 µM | 0.977
G401, 0.3704 µM | 0.891
G401, 1.111 µM | 0.721
G401, 3.333 µM | 0.485
G401, 10 µM | 0.0535
HS729, 0.00017 µM | 0.981
HS729, 0.00051 µM | 1
HS729, 0.00152 µM | 1.01
HS729, 0.00457 µM | 0.99
HS729, 0.01372 µM | 1.04
HS729, 0.04115 µM | 0.973
HS729, 0.1235 µM | 0.929
HS729, 0.3704 µM | 0.863
HS729, 1.111 µM | 0.738
HS729, 3.333 µM | 0.626
HS729, 10 µM | 0.119
KHOS-NP, 0.00017 µM | 1.06
KHOS-NP, 0.00051 µM | 1.06
KHOS-NP, 0.00152 µM | 1.06
KHOS-NP, 0.00457 µM | 1.06
KHOS-NP, 0.01372 µM | 1.06
KHOS-NP, 0.04115 µM | 1.06
KHOS-NP, 0.1235 µM | 1.05
KHOS-NP, 0.3704 µM | 1.04
KHOS-NP, 1.111 µM | 1.037
KHOS-NP, 3.333 µM | 0.982
KHOS-NP, 10 µM | 0.146
MES-SA, 0.00017 µM | 0.933
MES-SA, 0.00051 µM | 0.93
MES-SA, 0.00152 µM | 0.942
MES-SA, 0.00457 µM | 0.928
MES-SA, 0.01372 µM | 0.898
MES-SA, 0.04115 µM | 0.944
MES-SA, 0.1235 µM | 0.934
MES-SA, 0.3704 µM | 0.958
MES-SA, 1.111 µM | 0.92
MES-SA, 3.333 µM | 0.804
MES-SA, 10 µM | 0.583
RD, 0.00017 µM | 1.03
RD, 0.00051 µM | 1.03
RD, 0.00152 µM | 0.989
RD, 0.00457 µM | 1.01
RD, 0.01372 µM | 0.977
RD, 0.04115 µM | 0.97
RD, 0.1235 µM | 0.96
RD, 0.3704 µM | 0.965
RD, 1.111 µM | 0.873
RD, 3.333 µM | 0.777
RD, 10 µM | 0.0216
SK-ES-1, 0.00017 µM | 1
SK-ES-1, 0.00051 µM | 0.951
SK-ES-1, 0.00152 µM | 0.945
SK-ES-1, 0.00457 µM | 0.961
SK-ES-1, 0.01372 µM | 1.03
SK-ES-1, 0.04115 µM | 1.03
SK-ES-1, 0.1235 µM | 0.986
SK-ES-1, 0.3704 µM | 0.883
SK-ES-1, 1.111 µM | 0.571
SK-ES-1, 3.333 µM | 0.399
SK-ES-1, 10 µM | 0.0168
SK-LMS-1, 0.00017 µM | 1.16
SK-LMS-1, 0.00051 µM | 1.13
SK-LMS-1, 0.00152 µM | 1.13
SK-LMS-1, 0.00457 µM | 1.09
SK-LMS-1, 0.01372 µM | 1.11
SK-LMS-1, 0.04115 µM | 1.08
SK-LMS-1, 0.1235 µM | 1.073
SK-LMS-1, 0.3704 µM | 1.07
SK-LMS-1, 1.111 µM | 1.03
SK-LMS-1, 3.333 µM | 0.932
SK-LMS-1, 10 µM | 0.145
SW684, 0.00017 µM | 1.09
SW684, 0.00051 µM | 1.11
SW684, 0.00152 µM | 1.15
SW684, 0.00457 µM | 1.12
SW684, 0.01372 µM | 1.13
SW684, 0.04115 µM | 1.17
SW684, 0.1235 µM | 1.13
SW684, 0.3704 µM | 1.11
SW684, 1.111 µM | 1
SW684, 3.333 µM | 0.96
SW684, 10 µM | 0.422
SW872, 0.00017 µM | 1.05
SW872, 0.00051 µM | 1.03
SW872, 0.00152 µM | 1.02
SW872, 0.00457 µM | 1.03
SW872, 0.01372 µM | 1.03
SW872, 0.04115 µM | 1.03
SW872, 0.1235 µM | 1.03
SW872, 0.3704 µM | 1.04
SW872, 1.111 µM | 0.989
SW872, 3.333 µM | 0.963
SW872, 10 µM | 0.809
SYO-1, 0.00017 µM | 1
SYO-1, 0.00051 µM | 0.985
SYO-1, 0.00152 µM | 0.971
SYO-1, 0.00457 µM | 0.97
SYO-1, 0.01372 µM | 0.901
SYO-1, 0.04115 µM | 0.713
SYO-1, 0.1235 µM | 0.643
SYO-1, 0.3704 µM | 0.467
SYO-1, 1.111 µM | 0.369
SYO-1, 3.333 µM | 0.292
SYO-1, 10 µM | 0.099
VA-ES-BJ, 0.00017 µM | 1.04
VA-ES-BJ, 0.00051 µM | 1.06
VA-ES-BJ, 0.00152 µM | 1.04
VA-ES-BJ, 0.00457 µM | 1.06
VA-ES-BJ, 0.01372 µM | 1.05
VA-ES-BJ, 0.04115 µM | 1.045
VA-ES-BJ, 0.1235 µM | 1.05
VA-ES-BJ, 0.3704 µM | 1.03
VA-ES-BJ, 1.111 µM | 0.993
VA-ES-BJ, 3.333 µM | 0.994
VA-ES-BJ, 10 µM | 0.803
